Columns and labels:
[1] = system: Influenza A (H3N2)
[2] = liquid containing reactive components
[3] = system: Hepatitis C; test: trial on a Hepatitis C sufferer, ALT count as infection marker; assay type: in vivo, human; settings: for reduction of ALT count: over 16 week trial period, same trialist, interferon 9 million IU weekly
[4] = system: eight bacterial strains representing four bacterial genera (Staphylococcus, Pseudomonas, Klebsiella, Enterococcus)
[5] = system: Herpes simplex virus
[6] = system: Poliovirus type 1 (Sabin)

| Compound | sterilizing effect in vitro [1] | reduction of ethene in solution by reaction with other components [2] [%] | anti-Hepatitis C efficacy better than the interferon therapy ([3]; ALT reduction over 16 weeks) [%] | depression (reported by trialist) ([3]; during therapy) | ALT count ([3]; end of week 4 (from 242), daily 230 millilitres ethene gas in 745 millilitres purified water) [u/l] | ALT count ([3]; end of week 6) [u/l] | ALT count ([3]; end of week 14) [u/l] | infection symptoms ([3]; first 18 days therapy) | reduction of ALT count [3] [u/l] | ALT count ([3]; week 16) [u/l] | sterilizing effect in vitro [4] | sterilizing effect in vitro [5] | sterilizing effect in vitro [6] |
| --- | --- | --- | --- | --- | --- | --- | --- | --- | --- | --- | --- | --- | --- |
| C=C [ethene] | not to be sterilized | 50 | 337 | significant lifting | 218 | 303 | 93 | amelioration of infection symptoms | 153 | 89 | without apparent sterilizing success | not to be sterilized | not to be sterilized |
| interferon [reference compound] | – | – | – | – | – | – | – | – | 35 | – | – | – | – |

Source: patent US6384086B1, “Ethene containing solutions and use thereof in methods of therapy or prophylaxis” (priority 1996, dated 2002)
